The text below walks through data of patent US20240116877A1, “KIT KINASE INHIBITORS AND METHODS OF USE THEREOF” (Deciphera Pharmaceuticals, LLC, priority 2021, published 2024).

Assay [1] deals with Ba/F3 KIT mutant cells. The assay is described as follows: Ba/F3 mutant KIT Cell Proliferation Assays (resazurin). Type of assay: cell-based. The following applies: Mus musculus, BaF3. As for the experimental part: Ba/F3 KIT Mutant Cell Line Transduction and Expansion
Several different KIT cDNA encoding various primary and secondary mutations were cloned into a pLV(Exp]-CMV>(cDNA):IRES:puro vector. These vectors were constructed and packaged by VectorBuilder.
Exponentially grown Ba/F3 cells (1×10^6 cells in 1 ml medium) were infected with 60 μl of viral suspension in a 6-well plate in the presence of mIL-3 (10 ng/ml) and polybrene (7.5 μg/ml) (Vector Builder) and incubated for 16 h. After 16 h, the cells were centrifuged, and viral supernatant was discarded. The cells were then re-suspended in fresh medium and allowed to recover for another day. After 72 h post infection, the cells were seeded with complete medium with mIL-3 and with 1 μg/ml puromycin added to medium for selection. After 48 h, cells without viral infection die, whereas successfully transduced cells were collected and changed to fresh medium with 5 ng/ml of IL-3. After a week or two with gradual withdrawal of mIL3 the cells that can continue to proliferate in the absence of mIL3 were exponentially expanded and were frozen down for banking.
Ba/F3 mutant KIT Cell Proliferation Assays
(§1) A serial dilution of test compound was dispensed into a 384-well black clear bottom plate (Corning, Corning, NY). Six hundred and twenty-five cells were added per well in 50 μL complete growth medium. Plates were incubated for 68 h at 37° C., 5% CO2, 95% humidity. At the end of the incubation period 10 μL of a 440 μM solution of resazurin (Sigma, St. Louis, MO) in PBS was added to each well and incubated for an additional 5 h at 37° C., 5% CO2, 95% humidity. Plates were read on a Synergy2 reader (Biotek, Winooski, VT) using an excitation of 540 nm and an emission of 600 nm. Data was analyzed using Prism software (Graphpad, San Diego, CA) to calculate IC50 values.
On the technique in general: The colour change of resazurin is a common sign of viable cells or microbes.

The test system of assay [2] is GIST 430 cells. The assay is described as follows: GIST 430 Cell Proliferation Assay (resazurin). Conditions: Homo sapiens; GIST430 cell proliferation. Type of assay: cell-based. As for the experimental part:
GIST 430 Cell Proliferation Assay
as §1, with “a 96-well” for “a 384-well”, “NY). Five thousand” for “NY). Six hundred and twenty-five”, “in 200” for “in 50”, “for 115” for “for 68”, “at 37 degrees Celsius,” for “at 37° C.,”, “period 40” for “period 10”

Assay [3] deals with c-KIT kinase (uKIT) (Homo sapiens (Human), UniProt P10721). The assay is described as follows: Biochemical Assay for uKIT (coupled pyruvate kinase/lactate dehydrogenase assay). The following applies: Inhibition of biochemical activity of uKIT kinase; 1 mM ATP. As for the experimental part: Biochemical Assay for uKIT
c-KIT kinase (uKIT), sequence (P10721 other isoform, or with tags, fused parts or gaps): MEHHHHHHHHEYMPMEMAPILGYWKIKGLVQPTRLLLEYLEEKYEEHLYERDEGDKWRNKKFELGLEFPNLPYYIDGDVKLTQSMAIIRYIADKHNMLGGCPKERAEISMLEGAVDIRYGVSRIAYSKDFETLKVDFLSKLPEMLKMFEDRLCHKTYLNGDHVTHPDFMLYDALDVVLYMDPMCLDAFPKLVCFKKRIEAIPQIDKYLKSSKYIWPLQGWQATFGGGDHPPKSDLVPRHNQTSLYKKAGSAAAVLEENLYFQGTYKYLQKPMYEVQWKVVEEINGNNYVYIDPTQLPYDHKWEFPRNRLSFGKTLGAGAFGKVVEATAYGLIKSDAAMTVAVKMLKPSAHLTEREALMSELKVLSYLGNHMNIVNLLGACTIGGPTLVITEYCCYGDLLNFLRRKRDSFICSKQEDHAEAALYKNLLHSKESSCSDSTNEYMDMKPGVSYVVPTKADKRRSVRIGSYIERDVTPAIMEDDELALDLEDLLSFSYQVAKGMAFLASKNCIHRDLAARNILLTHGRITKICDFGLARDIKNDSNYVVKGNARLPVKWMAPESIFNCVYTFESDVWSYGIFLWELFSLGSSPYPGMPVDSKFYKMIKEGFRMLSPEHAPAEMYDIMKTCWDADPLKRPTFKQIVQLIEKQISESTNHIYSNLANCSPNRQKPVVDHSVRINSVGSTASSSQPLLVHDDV
Activity of c-KIT kinase (SEQ. ID NO. 1 or SEQ. ID NO. 2) was determined spectroscopically using a coupled pyruvate kinase/lactate dehydrogenase assay that continuously monitors the ATP hydrolysis-dependent oxidation of NADH (e.g., Schindler et al. Science (2000) 289: 1938-1942). Assays were conducted in 384-well plates (100 μL final volume) using 16 nM (Decode, SEQ ID No. 1) or 4.36 nM (Signal Chem, SEQ. ID No. 2), 0.7 mg/mL PE4Y substrate, 1.5 units pyruvate kinase, 2.1 units lactate dehydrogenase, 1 mM phosphoenol pyruvate, 0.28 mM NADH and 1 mM ATP in assay buffer (100 mM Tris, pH 7.5, 15 mM MgCl2, 0.5 mM DTT, 0.1% octyl-glucoside, 0.002% (w/v) BSA, and 0.002% Triton X-100). Inhibition of KIT was measured by adding serial diluted test compound (final assay concentration of 1% DMSO). A decrease in absorption at 340 nm was monitored continuously for 6 h at 30° C. on a multi-mode microplate reader (BioTek). The reaction rate was calculated using the 2-3 h time frame. The reaction rate at each concentration of compound was converted to percent inhibition using controls (i.e., reaction with no test compound and reaction with a known inhibitor) and IC50 values were calculated using software routines in Prism (GraphPad software).

The mark [4] stands for this setting: Ba/F3 KIT AYdup-V654A mutant cell proliferation, read-out: AYdup-V654A IC50.
The mark [5] stands for this setting: Ba/F3 KIT exon11del-V654A mutant cell proliferation, read-out: exon11del-V654A IC50.
The mark [6] stands for this setting: Ba/F3 KIT exon11del-Y823D mutant cell proliferation, read-out: exon11del-Y823D IC50.
Where [7] appears, read: Ba/F3 KIT AYdup mutant cell proliferation, read-out: AYdup IC50.
Where [8] appears, read: Ba/F3 KIT AYdup-D816G mutant cell proliferation, read-out: AYdup-D816G IC50.

Molecules are shown by their SMILES. Read-outs that look alike come from different tables or passages of the source. Bounds are passed on as bounds.

Usually IC50 stands for the concentration that inhibits the measured activity by half. As for `CC(C)(F)CCNC(=O)Nc1ccc(Nc2ncnc3cc(OC4CCC4)cc(F)c23)cc1` [Example 174], the IC50 is 0.01 to 0.1 µM in assay [1] (setting [4]); 0.01 to 0.1 µM in assay [1] (setting [5]); 0.01 to 0.1 µM in assay [1] (setting [6]); 0.1 to 1 µM in assay [2]; no more than 0.01 µM in assay [3].

Take `COCCOc1cc(F)c2c(Nc3ccc(NC(=O)CC(=O)N4CCCC(F)(F)C4)cc3)ncnc2c1` [Example 165]: the IC50 in assay [1] (setting [4]) fell in the range of 0.01 to 0.1 µM; in assay [1] (setting [5]), 0.1 to 1 µM; in assay [1] (setting [6]), 0.1 to 1 µM; in assay [2], 0.01 to 0.1 µM; in assay [3], 0.01 to 0.1 µM.

Turning to `CC(C)(F)CCNC(=O)Nc1ccc(Nc2ncnc3cc(O[C@H]4CCOC4)cc(F)c23)cc1` [Example 160], the IC50 in assay [1] (setting [7]) was no more than 0.01 µM; in assay [1] (setting [8]) it was 0.01 to 0.1 µM; in assay [1] (setting [4]) it was 0.01 to 0.1 µM; in assay [1] (setting [5]), 0.01 to 0.1 µM; in assay [1] (setting [6]), 0.01 to 0.1 µM; in assay [2], 0.01 to 0.1 µM.

For the compound `COCCOc1cc(F)c2c(Nc3ccc(NC(=O)CNC(=O)CC(C)C)cc3)ncnc2c1` [Example 76], the IC50 was 0.01 to 0.1 µM in assay [1] (setting [4]); no more than 0.01 µM in assay [1] (setting [5]); 0.1 to 1 µM in assay [1] (setting [6]); no more than 0.01 µM in assay [2]; 0.01 to 0.1 µM in assay [3].

As to `COCCOc1cc(F)c2c(Nc3ccc(NC(=O)NCCC4CC(F)(F)C4)cc3)ncnc2c1` [Example 22], the IC50 in assay [2] and in assay [3] was no more than 0.01 µM in each case.

As for `CO[C@H](C)COc1cc(F)c2c(Nc3ccc(NC(=O)NCCC(C)(C)F)cc3)ncnc2c1` [Example 156], the IC50 in assay [1] (setting [7]) was no more than 0.01 µM; in assay [1] (setting [8]), 0.01 to 0.1 µM; in assay [1] (setting [4]), 0.01 to 0.1 µM; in assay [1] (setting [5]) it was 0.01 to 0.1 µM; in assay [1] (setting [6]), 0.01 to 0.1 µM; in assay [2], 0.01 to 0.1 µM. The compound further had a 50% inhibitory concentration (IC50) in assay [3] of no more than 0.01 µM.

With `COCCOc1cc(F)c2c(Nc3ccc(NC(=O)CC(=O)NC[C@H]4CCCO4)cc3)ncnc2c1` [Example 101], the IC50 in assay [1] (setting [4]) is 0.1 to 1 µM; in assay [1] (setting [5]) it was 0.01 to 0.1 µM; in assay [1] (setting [6]), greater than 1 µM; in assay [2], 0.1 to 1 µM; in assay [3], 0.1 to 1 µM.

Turning to `COCCOc1cc(F)c2c(Nc3ccc(NC(=O)NCCC(C)(C)F)c(F)c3)ncnc2c1` [Example 64], the IC50 in assay [1] (setting [4]) lay within 0.1 to 1 µM; in assay [1] (setting [5]) it was 0.01 to 0.1 µM; in assay [1] (setting [6]), 0.1 to 1 µM; in assay [2], 0.01 to 0.1 µM; in assay [3], 0.01 to 0.1 µM.

For `CC(C)(F)CCNC(=O)Nc1ccc(Nc2ncnc3cc(OCCN4CCCC4)cc(F)c23)cc1` [Example 150], the IC50 in assay [1] (setting [7]) is no more than 0.01 µM; in assay [1] (setting [8]) it was 0.01 to 0.1 µM; in assay [1] (setting [4]) it was 0.01 to 0.1 µM; in assay [1] (setting [5]) it was 0.01 to 0.1 µM; in assay [1] (setting [6]), 0.1 to 1 µM; in assay [2], 0.01 to 0.1 µM. For the same compound, the IC50 in assay [3] was no more than 0.01 µM.

For `COCCOc1cc(F)c2c(Nc3ccc(NC(=O)NCCOC(F)(F)F)cc3)ncnc2c1` [Example 42], the IC50 is no more than 0.01 µM in assay [1] (setting [7]); 0.01 to 0.1 µM in assay [1] (setting [8]); 0.01 to 0.1 µM in assay [1] (setting [4]); 0.01 to 0.1 µM in assay [1] (setting [5]); 0.01 to 0.1 µM in assay [1] (setting [6]); 0.01 to 0.1 µM in assay [2]. Further, the IC50 in assay [3] is no more than 0.01 µM.

On to `COCCOc1cc(OC)c2c(Nc3ccc(NC(=O)NCCC(C)(C)F)cc3)ncnc2c1` [Example 181], for which the IC50 in assay [1] (setting [4]) is 0.01 to 0.1 µM; in assay [1] (setting [5]) it was 0.01 to 0.1 µM; in assay [1] (setting [6]) it was no more than 0.01 µM; in assay [2], 0.01 to 0.1 µM; in assay [3] it was no more than 0.01 µM.

In the case of `COCCOc1cc(F)c2c(Nc3ccc(NC(=O)COCC(F)(F)F)cc3)ncnc2c1` [Example 48], the IC50 in assay [1] (setting [7]) was in the range of 0.01 to 0.1 µM; in assay [1] (setting [8]), 0.1 to 1 µM; in assay [1] (setting [4]) it was 0.1 to 1 µM; in assay [1] (setting [5]) it was 0.1 to 1 µM; in assay [1] (setting [6]), 0.1 to 1 µM; in assay [2], 0.1 to 1 µM. Besides, the IC50 in assay [3] lay within 0.1 to 1 µM.

For `COCCOc1cc(F)c2c(Nc3ccc(NC(=O)CC(=O)N4CCCC4C(C)(C)C)cc3)ncnc2c1` (stereo not drawn) [Example 189], the IC50 in assay [1] (setting [4]) lay within 0.1 to 1 µM; in assay [1] (setting [5]), 0.1 to 1 µM; in assay [1] (setting [6]) it was 0.1 to 1 µM; in assay [2], 0.1 to 1 µM; in assay [3], 0.01 to 0.1 µM.

Consider `COCCOc1cc(F)c2c(Nc3ccc(NC(=O)NCCC4CCCC4)cc3)ncnc2c1` [Example 21], for which the IC50 in assay [2] and in assay [3] was no more than 0.01 µM in each case.

As for `COCCOc1cc(F)c2c(Nc3ccc(NC(=O)NCC4CCOCC4)cc3)ncnc2c1` [Example 13], the IC50 in assay [2] and in assay [3] was 0.01 to 0.1 µM each time.

On to `COCCOc1cc(F)c2c(Nc3ccc(NC(=O)CCC(C)(C)C)cc3)ncnc2c1` [Example 3, N-(4-((5-fluoro-7-(2-methoxyethoxy)quinazolin-4-yl)amino)phenyl)-4,4-dimethylpentanamide], for which the IC50 in assay [2] fell in the range of 0.1 to 1 µM; in assay [3], 0.01 to 0.1 µM.

Consider `COCCOc1cc(F)c2c(Nc3ccc(NC(=O)NCCC(C)(C)C(F)(F)F)cc3)ncnc2c1` [Example 1, 1-(4-((5-fluoro-7-(2-methoxyethoxy)quinazolin-4-yl)amino)phenyl)-3-(4,4,4-trifluoro-3,3-dimethylbutyl)urea], for which the IC50 in assay [2] and in assay [3] was no more than 0.01 µM each time.

For the compound `COCCOc1cc(F)c2c(Nc3ccc(NC(=O)NCC4COC4)cc3)ncnc2c1` [Example 11], the IC50 in assay [2] lay within 0.1 to 1 µM; in assay [3], 0.01 to 0.1 µM.

On to `COCCOc1cc(F)c2c(Nc3ccc(NC(=O)NCCC(C)(C)OC)nc3)ncnc2c1` [Example 24], for which the IC50 in assay [2] and in assay [3] was 0.1 to 1 µM throughout.

For the compound `COCCOc1cc(F)c2c(Nc3ccc(NC(=O)NCCC4(C(F)(F)F)CC4)cc3)ncnc2c1` [Example 17], the IC50 in assay [2] and in assay [3] was no more than 0.01 µM throughout.

For `COCCOc1cc(F)c2c(Nc3ccc(NC(=O)N[C@@H]4CCOC4)cc3)ncnc2c1` [Example 14], the IC50 fell in the range of 0.1 to 1 µM in assay [2] and 0.01 to 0.1 µM in assay [3].

Take `COCCOc1cc(F)c2c(Nc3ccc(NC(=O)CCC(C)(C)F)cc3)ncnc2c1` [Example 23]: the IC50 in assay [2] and in assay [3] was 0.1 to 1 µM throughout.

Take `COCCOc1cc(F)c2c(Nc3ccc(NC(=O)NC4CCOCC4)cc3)ncnc2c1` [Example 12]: the values for the IC50 in assay [2] and in assay [3] were 0.1 to 1 µM and 0.01 to 0.1 µM, respectively.

For `CC(C)(F)CCNC(=O)Nc1ccc(Nc2ncnc3cc(O[C@@H]4CCOC4)cc(F)c23)cc1` [Example 180], the IC50 in assay [1] (setting [4]) was greater than 1 µM; in assay [1] (setting [5]), greater than 1 µM; in assay [1] (setting [6]), 0.1 to 1 µM; in assay [2] it was greater than 1 µM.

`COCCOc1cc(F)c2c(Nc3ccc(NC(=O)CC(=O)N4CCC[C@@H]4C(C)C)cc3)ncnc2c1` [Example 214]: the IC50 in assay [1] (setting [4]), in assay [1] (setting [5]), in assay [1] (setting [6]) and in assay [3] was 0.01 to 0.1 µM each time.
